According to the CheMixHub ionic liquid set:

Assay: xn = mol fraction of the nth substance listed

CC[n+]1ccn(C)c1.O=C([O-])C(F)(F)F + OCCO
100 kPa
Details | electrical conductivity, 298.15 K [S/m] | electrical conductivity, 313.15 K [S/m] | viscosity, 293.15 K [mPa·s] | viscosity, 298.15 K [mPa·s] | viscosity, 303.15 K [mPa·s] | viscosity, 313.15 K [mPa·s]
x1 = 0.001 | 0.0126 | 0.0215 | 20.8 | 16.9 | 13.8 | 9.56
x1 = 0.003 | 0.0278 | 0.0473 | 20.8 | 16.8 | 13.8 | 9.54
x1 = 0.009 | 0.065 | 0.111 | 20.6 | 16.7 | 13.7 | 9.53
x1 = 0.015 | 0.106 | 0.18 | 20.5 | 16.6 | 13.7 | 9.49
x2 = 0.489 | 1.36 | 2.23 | 20.6 | 17.5 | 14.9 | 11.1
x2 = 0.602 | 1.48 | 2.25 | 18.4 | 15.5 | 13.2 | 9.84
x2 = 0.71 | 1.33 | 2.06 | 17.2 | 14.5 | 12.3 | 9.09
x2 = 0.783 | 1.11 | 1.72 | 17.2 | 14.3 | 12.1 | 8.83
x2 = 0.843 | 0.89 | 1.41 | 17.6 | 14.6 | 12.2 | 8.81
x2 = 0.894 | 0.63 | 1.03 | 18.4 | 15.1 | 12.5 | 8.95
x2 = 0.934 | 0.415 | 0.69 | 19.3 | 15.8 | 13 | 9.2
x2 = 0.97 | 0.2 | 0.339 | 20.2 | 16.4 | 13.5 | 9.4

CN1CCCN(C)C1=O + CCCCCC[n+]1ccn(C)c1.[Cl-]
viscosity [mPa·s], 100 kPa
Details | 288.15 K | 293.15 K | 298.15 K | 303.15 K | 308.15 K | 313.15 K | 318.15 K | 323.15 K | 328.15 K | 333.15 K
x2 = 0 | 4 | 3.51 | 3.11 | 2.78 | 2.5 | 2.266 | 2.064 | 1.891 | 1.737 | 1.595
x2 = 0.1011 | 9.78 | 8.21 | 6.99 | 6.01 | 5.22 | 4.59 | 4.06 | 3.63 | 3.25 | 2.94
x2 = 0.1987 | 29.2 | 23.3 | 18.82 | 15.64 | 13.14 | 10.05 | 8.62 | 7.47 | 6.53 | 5.75
x2 = 0.3083 | 77.7 | 59.1 | 45.8 | 36.3 | 29.2 | 23.9 | 19.81 | 16.38 | 13.92 | 12.29
x2 = 0.3981 | 184 | 133.6 | 99.3 | 75.6 | 63.8 | 50.5 | 40.6 | 33 | 27.5 | 23.11
x2 = 0.4957 | 412 | 283 | 215 | 157.4 | 117.8 | 90.1 | 70.2 | 55.6 | 44.6 | 36.3
x2 = 0.6008 | 897 | 600 | 418 | 296 | 215 | 158 | 121 | 93.6 | 73.9 | 58.6
x2 = 0.6983 | 2019 | 1294 | 856 | 583 | 408 | 294 | 215 | 163.7 | 124.9 | 96.8
x2 = 0.7961 | – | 2416 | 1565 | 1044 | 708 | 496 | 357 | 261 | 196 | 148.4

CCCCCC[n+]1ccn(C)c1.F[B-](F)(F)F + CC(C)(C)O
298.15 K, 101 kPa
Details | viscosity [mPa·s]
x2 = 0.3074 | 69.2
x2 = 0.8007 | 13.92

NCCCNCCCN + CC(=O)[O-].CCCC[n+]1ccn(C)c1 + O
viscosity [mPa·s], 101 kPa
Details | 298.15 K | 303.15 K | 308.15 K | 313.15 K | 318.15 K | 323.15 K | 328.15 K | 333.15 K
x2 = 0.03479, x1 = 0.0177 | 3.36 | 3.32 | 3.14 | 2.86 | 2.61 | 2.28 | 1.96 | 1.77
x2 = 0.03897, x1 = 0.01333 | 3.54 | 3.51 | 3.28 | 2.95 | 2.66 | 2.52 | 2.34 | 2.15
x2 = 0.04311, x1 = 0.00893 | 3.88 | 3.76 | 3.32 | 2.96 | 2.74 | 2.62 | 2.37 | 2.24
